{"source": "patent US7816075B2", "about": "“Methods and compositions using stearoyl-CoA desaturase to identify triglyceride reducing therapeutic agents” (Xenon Pharmaceuticals Inc., priority 2000, dated 2010)", "key": {"[1]": {"tested_on": "human SCD promoter", "assay": "Human SCD promoter-luciferase reporter (pSCD-500) in transfected HepG2 cells", "format": "cell-based", "conditions": "for SCD promoter activity: HepG2 cells co-transfected with mature SREBP-1a, in the presence of cholesterol, fatty acids as albumin complexes (data not shown)", "method": "The decrease in promoter activity in the reporter construct correlated with decreases in endogenous SCD mRNA and protein levels. […] Our studies indicate that like the mouse SCD1 gene, the human SCD gene is regulated by polyunsaturated fatty acids and cholesterol at the level of gene transcription and that SREBP plays a role in the transcriptional activation of this gene. Cell Culture and DNA transfections—HepG2 cells, were grown in Low Glucose DMEM supplemented with 10% Fetal Bovine Serum and 1% Penicillin/Streptomycin solution and maintained at 37 C, 5% CO2 in a humidified incubator. Cells were passaged into 6 cm dishes to give 40-70% confluence in about 12-16 hours. Cells were then transfected with 5 μg plasmid DNA per plate of pSCD-500 or the Basic PGL3 reporter as well as well as the pRL-TK, internal controls (Promega) using the LT-1 transfection reagent (Pan Vera). After 48 hours, cells were rinsed with PBS and then treated in Williams' E Media, a fatty acid-free media, containing insulin, dexamethasone, and appropriate concentrations of albumin-conjugated fatty acids as indicated in figures and legends. Cells were also treated with ethanol alone (as control) or cholesterol (10 μg/mL) and 25-OH cholesterol (1 μg/mL) dissolved in ethanol. After an additional 24 h, extracts were prepared and assayed for luciferase activity. Non-transfected cells were used as the blank and Renilla Luciferase was used as an internal control. Cell extracts were assayed for protein according to Lowry, and all results were normalized to protein concentration as well as to renilla luciferase counts. Each experiment was repeated at least three times, and all data are expressed as means±SEM. […] To observe the regulatory effects of mature SREBP-1a and PUFAs on the activity of SCD promoters, HepG2 hepatic cells were transiently co-transfected with 20 ng (per 6-cm dish) of plasmid DNA containing the human SCD promoter as described above but this time the transfections were carried out in the presence of cholesterol to inhibit the maturation of the endogenous SREBP and thus ensure that there was little mature form of the endogenous SREBP present in the cells. After transfection, the cells were then treated with, arachidonic acid, EPA and DHA as albumin complexes and luciferase activity was then assayed using a luminometer. If SREBP mediates PUFA repression of the human SCD gene, SCD promoter activity would not diminish upon treatment the transfected cells with PUFA."}, "[2]": {"tested_on": "human SCD mRNA expression", "assay": "Northern blot of SCD mRNA in treated HepG2 cells", "format": "cell-based", "conditions": "range of doses, cholesterol 10 μg/ml with 1 μg/ml 25-hydroxycholesterol, FIG. 15", "method": "FIG. 15. Human HepG2 cells cultured and treated with a range of doses of arachidonic acid, DHA or 10 μg/ml cholesterol or EPA as indicated. Total mRNA was isolated and quantified. Isolation and Analysis of RNA-Total RNA was isolated from HepG2 cells using the acid guanidinium-phenol-chloroform extraction method. Twenty micrograms of total RNA was separated by 0.8% agarose/2.2 M formaldehyde gel electrophoresis and transferred onto nylon membrane. The membrane was hybridized with ^32P-labeled human SCD cDNA probe generated by PCR as follows: pAL15 probe was used as control for equal loading. We tested whether the human SCD gene expression was also repressed by cholesterol and polyunsaturated fatty acids. Human HepG2 cells were cultured and then treated with 100 μM arachidonic acid, DHA or 10 μg/ml cholesterol and 1 μg/ml of 25-hydroxycholesterol cholesterol as we have described previously. Total mRNA was isolated and subjected to northern blot analysis using a probe corresponding to the human cDNA and generated by the PCR method using primers based on published human SCD cDNA sequence."}, "[3]": {"target": "T1, SCD1 (Mus musculus, UniProt P13516)", "T1 construct": "from tissue; host or cells: mouse liver microsomes (wild type, after a high carbohydrate fat-free diet)", "T1 sequence (P13516 1-355)": "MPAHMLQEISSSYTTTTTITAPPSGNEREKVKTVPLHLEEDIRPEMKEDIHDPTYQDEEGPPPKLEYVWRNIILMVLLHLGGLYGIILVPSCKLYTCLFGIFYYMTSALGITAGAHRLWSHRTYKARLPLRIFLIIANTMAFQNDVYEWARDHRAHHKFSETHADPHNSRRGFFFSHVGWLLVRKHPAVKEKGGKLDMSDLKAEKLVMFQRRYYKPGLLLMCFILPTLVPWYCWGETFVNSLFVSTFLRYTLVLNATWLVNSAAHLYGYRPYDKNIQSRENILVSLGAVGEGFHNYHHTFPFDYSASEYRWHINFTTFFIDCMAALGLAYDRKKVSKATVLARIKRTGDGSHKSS", "assay": "SCD1 desaturase activity assay, transfer of 3H from 3H-stearoyl CoA to water in liver microsomes", "format": "biochemical", "conditions": "for inhibition of SCD1: pre-conjugated to CoA (microsomes incubated with CoA and ATP before 3H-stearoyl CoA)", "method": "Microsomes from wild type livers were used for this experiment. A turnover number for SCD1 activity under these conditions was estimated at 2 nmol/min/mg protein, which is about half that observed at 37° C.\nLivers were collected from wild type and SCD1 knockout mice following 3 days on a high carbohydrate fat-free diet (this induces SCD1 expression in liver by about 50-fold), homogenized and a portion used for microsome purification. ^3H-water production was determined for 15 minutes at RT (room temperature) in both homogenate and microsome preparations at equivalent protein concentration, followed by quenching the reaction with acid and using charcoal to separate substrate from product. Quenching the sample with acid prior to the addition of substrate offers a blank, or control containing background radioactivity without any desaturation reaction. […] The “window”, or SCD1-dependent desaturation in this assay, is a highly visible and significant 160-fold difference between wild type and SCD1 knockout microsomes.\nMicrosomes from wild type mice were used to test the effectiveness of three known inhibitors of SCD1: conjugated linoleic acid (CLA), 9-thia stearic acid (9-thia) and sterculic acid (SA). […] This experiment establishes that SCD1 activity can be inhibited with known inhibitors but they appear to require conjugation with CoA. An important use of this screening assay is to find small molecules that are potent inhibitors of SCD1 biological activity without conjugation to CoA.\nIn a preferred embodiment, the assay makes use of ^3H-stearoyl CoA (with the ^3H on the 9 and 10 carbon atoms), the substrate for SCD1. Desaturation by SCD1, produces oleoyl CoA and 3H-water molecules. The reaction is run at room temperature, quenched with acid and then activated charcoal is used to separate unreacted substrate from the radioactive water product. The charcoal is sedimented and amount of radioactivity in the supernatant is determined by liquid scintillation counting. This assay is specific for SCD1-dependent desaturation as judged by the difference seen when comparing the activity in wild type and SCD1-knockout tissues. Further, the method is easily adapted to high throughput as it is cell-free, conducted at room temperature and is relatively brief (1 hour reaction time period versus previous period of 2 days). This procedure is illustrated more fully in FIGS. 17 to 20."}, "[4]": {"tested_on": "SCD protein", "assay": "Western blot of SCD protein in treated HepG2 cells", "format": "cell-based, human", "conditions": "western blot of protein extracts (data not shown)", "method": "Immunoblotting—Cell extracts were prepared from HepG2 cells that had been treated with the various fatty acids or cholesterol as described by Heinemann et al (17). The same amount of protein (60 μg) from each fraction was subjected to 10% SDS-polyacrylamide gel electrophoresis and transferred to Immobilon-P transfer membranes at 4° C. After blocking with 10% non-fat milk in TBS buffer (pH 8.0) plus 0.5% Tween at 4° C. overnight, the membrane was washed and incubated with rabbit anti-rat SCD as primary antibody (17) and goat anti-rabbit IgG-HRP conjugate as the secondary antibody. Visualization of the SCD protein was performed with ECL western blot detection kit. We tested whether the human SCD gene expression was also repressed by cholesterol and polyunsaturated fatty acids. Human HepG2 cells were cultured and then treated with 100 μM arachidonic acid, DHA or 10 μg/ml cholesterol and 1 μg/ml of 25-hydroxycholesterol cholesterol as we have described previously. Total mRNA was isolated and subjected to northern blot analysis using a probe corresponding to the human cDNA and generated by the PCR method using primers based on published human SCD cDNA sequence."}, "[5]": {"target": "T2, SCD (Homo sapiens, UniProt O00767)", "T2 sequence (O00767 1-359)": "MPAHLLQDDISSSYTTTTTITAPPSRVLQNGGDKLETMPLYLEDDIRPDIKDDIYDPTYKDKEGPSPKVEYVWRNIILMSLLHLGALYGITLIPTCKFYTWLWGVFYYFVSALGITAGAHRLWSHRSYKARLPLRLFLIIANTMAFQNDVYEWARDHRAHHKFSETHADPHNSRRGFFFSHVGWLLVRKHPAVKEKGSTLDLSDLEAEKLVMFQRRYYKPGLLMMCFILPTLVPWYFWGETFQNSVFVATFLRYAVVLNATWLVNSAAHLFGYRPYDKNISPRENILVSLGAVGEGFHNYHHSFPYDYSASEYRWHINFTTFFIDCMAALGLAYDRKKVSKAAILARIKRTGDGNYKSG", "conditions": "known from the literature; cited from earlier work"}, "[6]": {"tested_on": "SCD1 mRNA", "conditions": "known from the literature; cited from earlier work"}, "[7]": {"conditions": "added as the free fatty acid, microsomes from wild type mice (FIG. 19 panel A)"}}, "data": [{"compound": "CC/C=C\\C/C=C\\C/C=C\\C/C=C\\C/C=C\\C/C=C\\CCC(=O)O", "note": "[DHA]", "values": [{"measurement": "SCD promoter activity", "setting": "[1]", "result": "continued to repress SCD promoter activity with only a slight attenuation"}, {"measurement": "human SCD mRNA expression", "setting": "[2]", "result": "decreased the human SCD mRNA expression in a dose dependent manner"}]}, {"compound": "conjugated linoleic acid", "values": [{"measurement": "suppression of SCD1 activity", "setting": "[3]; [7]", "result": "none were effective"}, {"measurement": "inhibition of SCD1", "setting": "[3]; FIG. 19 panel B", "result": "graded inhibition"}]}, {"compound": "CC(C)CCC[C@@H](C)[C@H]1CC[C@H]2[C@@H]3CC=C4C[C@@H](O)CC[C@]4(C)[C@H]3CC[C@]12C", "note": "[cholesterol]", "values": [{"measurement": "SCD promoter-luciferase activity", "setting": "[1]; transiently transfected HepG2 cells", "result": "decreased the SCD promoter-luciferase activity"}, {"measurement": "levels of the SCD protein", "setting": "[4]", "result": "decreased the levels of the SCD protein"}, {"measurement": "human SCD mRNA expression", "setting": "[2]", "result": "decreased the human SCD mRNA expression in a dose dependent manner"}]}, {"compound": "CCCCC/C=C\\C/C=C\\C/C=C\\C/C=C\\CCCC(=O)O", "note": "[AA, arachidonic acid]", "values": [{"measurement": "SCD promoter activity", "setting": "[1]", "result": "continued to repress SCD promoter activity with only a slight attenuation"}, {"measurement": "human SCD mRNA expression", "setting": "[2]", "result": "decreased the human SCD mRNA expression in a dose dependent manner"}]}, {"compound": "CCCCCC/C=C/C=C\\CCCCCCCC(=O)O", "note": "[Cis-9, trans-11 conjugated linoleic acid]", "values": [{"measurement": "inhibition of SCD enzyme activity", "setting": "[5]", "result": "does not"}]}, {"compound": "CCCCC/C=C\\C=C\\CCCCCCCCC(=O)O", "note": "[Cis-12, trans-10 conjugated linoleic acid]", "values": [{"measurement": "inhibition of SCD enzyme activity", "setting": "[5]", "result": "effectively inhibit SCD enzyme activity"}, {"measurement": "abundance of SCD1 mRNA", "setting": "[6]", "result": "reduce the abundance of SCD1 mRNA"}]}, {"compound": "CCCCCCCCC1=C(CCCCCCCC(=O)O)C1", "note": "[sterculic acid, 8-(2-octyl-cyclopropenyl)octanoic acid]", "values": [{"measurement": "suppression of SCD1 activity", "setting": "[3]; [7]", "result": "none were effective"}, {"measurement": "inhibition of SCD1", "setting": "[3]; FIG. 19 panel B", "result": "graded inhibition"}, {"measurement": "suppression of SCD1 activity", "setting": "[3]; pre-conjugated to CoA, preincubation condition, FIG. 19 panel B", "result": "~100", "unit": "%"}]}, {"compound": "CC/C=C\\C/C=C\\C/C=C\\C/C=C\\C/C=C\\CCCC(=O)O", "note": "[EPA]", "values": [{"measurement": "SCD promoter activity", "setting": "[1]", "result": "continued to repress SCD promoter activity with only a slight attenuation"}]}]}
